US20260027132A1, “FRAGRANCE COMPOSITIONS AND USE THEREOF FOR IMPROVING SLEEP” (TAKASAGO INTERNATIONAL CORPORATION, priority 2018, published 2026)

What follows are compounds tested on panelists (assay: Sleep study with panelists smelling test material at bedtime, Fitbit sleep data versus blank control). Conditions: vs blank control (no fragrance), 0.06 g neat oil on a blotter, smelled at bedtime, jar left open, one week.
Assay type: in vivo, human
Protocol: A series of sleep studies were conducted. Each study runs one week with one additional week for blank control sample (no fragrance). The number of panelists in each study ranged from 9 to 15. Panelists received either a set of control jars or a set of jars with test material (0.06 g neat oil on a blotter). The second week the order was reversed such that at the end of each study, each panelist had received both treatments.
Each night, when ready to go to sleep, panelists were instructed to open one of the jars, hold it under their nose, and smell the fragrance while counting slowly to 20, then leave the jar open on the night table while sleeping. Fitbit sleep data were collected at the end of each session of each study and analyzed by ANOVA.

SMILES | Total light sleep minutes % Increase | Total minutes awake % Decrease | Sleep efficiency % Increase | Total deep sleep minutes % Increase | Total minutes asleep % Increase | Total REM sleep minutes % Increase
O=C1CCCC=CCCCCCCCCCC1 [Ambretone, 5-cyclohexadecen-1-one] | 4% | – | – | – | – | –
CC1(C)CCC[C@]2(C)[C@H]3CCO[C@]3(C)CC[C@@H]12 [Ambroxan, (3aR,5aS,9aS,9bR)-3a,6,6,9a-tetramethyl-2,4,5,5a,7,8,9,9b-octahydro-1H-benzo[e][1]benzofuran] | – | 8% | – | – | – | –
CC(C=O)Cc1ccc(C(C)C)cc1 (stereo not shown) [Cyclamen aldehyde, cyclamen aldehyde] | – | 7% | 1.2% | 7.4% | 4% | –
C=CC(C)CCCC(C)(C)O (stereo not shown) [Dihydromyrcenol, dihydromyrcenol] | – | – | – | 37% | 13% | 10%
CC(C)=CCC/C(C)=C/CO [Geraniol, geraniol] | 8% | – | – | 29% | 10% | –
CC(C)[C@@H]1CC[C@@H](C)C[C@H]1O [L-menthol] | 3% | – | 1% | – | – | –
CC1CCCCCCCCCCCCC(=O)C1 [L-muscone, 3-methylcyclopentadecan-1-one] | – | – | – | 11% | – | –
CC(C=O)Cc1ccc(C(C)(C)C)cc1 (stereo not shown) [Lilial, lilial] | 5% | – | 1% | – | 4% | 6%
C=CC(C)(O)CCC=C(C)C (stereo not shown) [Linalool, linalool] | 5% | – | – | – | – | –
C=CC(C)(CCC=C(C)C)OC(C)=O (stereo not shown) [Linalyl acetate, linalyl acetate] | – | 10.6% | 2% | 16% | – | 19%
O=C1CCCCCCCCCCCC(=O)OCCO1 [Musk T, 1,4-dioxacycloheptadecane-5,17-dione] | – | 13% | 2% | – | – | –
CC(C)=CCC/C(C)=C\CO [Nerol, nerol] | 4% | – | – | – | 4% | –
CC(C)C(=O)OCCOc1ccccc1 [Phenoxyethyl isobutyrate, phenoxyethyl isobutyrate] | 8% | – | – | – | – | –
COc1cc(C=O)ccc1O [Vanillin, vanillin] | – | – | – | – | – | 7%
CC(=O)/C=C/C1C(C)=CCCC1(C)C (stereo not drawn) [alpha-ionone] | – | – | – | 14% | 5% | –
CC(=O)/C=C/C1=C(C)CCCC1(C)C [beta-ionone] | 3% | 12% | 2% | – | – | –
CC/C=C\CCOC(=O)c1ccccc1O [cis-3-hexenyl salicylate] | – | – | – | 8% | – | –
CC(=O)/C(C)=C/C1C(C)=CCCC1(C)C (stereo not shown) [gamma-methyl ionone] | 12% | – | – | – | – | –
